Activity calls are given as the source filed them. No rule for the calls is given here.
Test: TIM10 isogenic strain growth inhibitors – luminescence, S. cerevisiae, counter-screen for tim23-1 inhibitor project, SAR follow-up (AID 602380)
Settings: S. cerevisiae TIM10 isogenic control strain, BacTiter-Glo growth luminescence

| SMILES | IC50 |
| --- | --- |
| Cc1ccc2nc(N3C(=O)CNC3=S)sc2c1 | 6.81 µM |
| C(/C=C/c1ccccc1)=NNc1nc2ccccc2[nH]1 | 8.98 µM |
| O=C(O)c1cccnc1SCc1cc(=O)n2cc(Br)ccc2n1 | > 99 µM (inactive) |
| N#Cc1c(-c2ccccc2)cc(-c2ccc(O)cc2)nc1N | 4.52 µM |
| Cc1nc2scc(C)n2c(=O)c1S(=O)(=O)Nc1cc(C(F)(F)F)ccc1Cl | 79.2 µM |
| CN1CCc2nc3sc(C(=O)C45CC6CC(CC(C6)C4)C5)c(N)c3cc2C1 | 42.1 µM |
| Cc1cccn2c(=O)cc(CSc3cc(C(=O)NC4CC4)c4ccccc4n3)nc12 | > 99 µM (inactive) |
| Cc1ccc2nc(CS(=O)(=O)c3ncccc3Cl)cc(=O)n2c1 | > 99 µM (inactive) |
| NC(=O)C1CCN(c2nc(-c3cccnc3)nc3ccccc23)CC1 | > 99 µM (inactive) |
| O=C(Nc1nc2ccccc2s1)C1CCCN1S(=O)(=O)c1ccc(Cl)cc1 (centres undefined) | 6.26 µM |
| Cc1ccc(Nc2nc(-c3cccnc3)nc3ccccc23)cc1 | 4.04 µM |
| O=C(Nc1ccn[nH]1)c1ccc(Br)cc1Cl | > 99 µM (inactive) |
| O=C(N/N=C/C(Cl)=C\c1ccccc1)c1cccs1 | 9.48 µM |
| O=C(Nc1ccc(-c2cn3ccccc3n2)cc1)c1cccs1 | 7.93 µM |
| Cc1nc2scc(C)n2c(=O)c1S(=O)(=O)Nc1ccc(OC(F)(F)F)cc1 | 21.6 µM |
| Oc1ccc(Oc2ccc(Oc3ccc(O)cc3)cc2)cc1 | 5.69 µM |
| Nc1cccc(Oc2ccc(Oc3cccc(N)c3)cc2)c1 | > 99 µM (inactive) |
| Cc1ccc2nc(CSc3ncc(C(F)(F)F)cc3Cl)cc(=O)n2c1 | > 99 µM (inactive) |
| Cc1ccc(/C(N)=N/OC(=O)c2ccccc2)cc1F | 1.37 µM |
| CCOc1ccc(C(=O)O/N=C(\N)c2ccc(OC)cc2)cc1OCC | 5.57 µM |
| Cc1nc(SCc2cc(=O)n3cc(Br)ccc3n2)c(C#N)c(C)c1C | > 99 µM (inactive) |
| Cn1c(SCc2cccc(/C(N)=N/OC(=O)c3ccc(Cl)cc3)c2)nnc1C(F)(F)F | 3.59 µM |
| Cc1ccc(C2=NNC(c3ccc(Cl)cc3Cl)S2)cc1 (centres undefined) | 5.15 µM |
| O=c1cc(CSc2ccc(S(=O)(=O)N3CCOCC3)cn2)nc2ccc(Br)cn12 | 42.9 µM |
| Cc1nc2scc(C)n2c(=O)c1S(=O)(=O)Nc1ccc(N2CCN(S(C)(=O)=O)CC2)cc1 | > 99 µM (inactive) |
| CC(C)(C)c1csc(NC(=O)c2ccc(Cl)s2)n1 | 9.68 µM |
| COc1cc2c(cc1OC)/C(=C/c1ccc(Cl)cc1)C(=O)OC2 | 2.61 µM |

| SMILES | IC50 |
| --- | --- |
| O=C1OC(c2ccccc2)=N/C1=C\C=C\c1ccco1 | 6.78 µM |
| O=S(=O)(Nc1ccc(-c2cn3c(n2)SCC3)cc1)c1cccnc1 | > 99 µM (inactive) |
| O=C(NN=C/C=C\c1ccco1)c1cccs1 | 4.48 µM |
| N/C(=N\OC(=O)c1ccc(Cl)c(Cl)c1)c1cccc(CS(=O)(=O)c2ccccn2)c1 | 15.6 µM |
| Cc1nc2scc(C)n2c(=O)c1S(=O)(=O)Nc1ccc(Cl)c(C(F)(F)F)c1 | 91.1 µM |
| C=C1CCc2c([nH]c3ccc(OCC(C)C)cc23)C1=O | 1.59 µM |
| Cc1nc2scc(C)n2c(=O)c1S(=O)(=O)Nc1ccc(N2CCN(C(=O)C(C)C)CC2)cc1 | > 99 µM (inactive) |
| N/C(=N\OC(=O)c1ccccc1)c1ccc(F)cc1F | 16.7 µM |
| Cc1nc2scc(C)n2c(=O)c1S(=O)(=O)Nc1ccc(Oc2ccc(Cl)cc2)cc1 | > 99 µM (inactive) |
| Cc1nc2scc(C)n2c(=O)c1S(=O)(=O)Nc1ccc(N2CCOCC2)cc1 | > 99 µM (inactive) |
| COc1ccc(/C(N)=N/OC(=O)c2ccc(C(F)(F)F)cc2)c(OC)c1 | 72.7 µM |
| Cc1nn(Cc2cccc(C(=O)O/N=C(\N)c3ccc(Cl)cc3)c2)c(C)c1Br | 1.7 µM |
| O=C(Nc1ccc2nc(-c3ccc(Br)o3)[nH]c2c1)c1cccs1 | 30.9 µM |
| CN1CCN(c2nc(-c3cccnc3)nc3ccccc23)CC1 | > 99 µM (inactive) |
| Cc1nc2scc(C)n2c(=O)c1S(=O)(=O)Nc1cccc(C(F)(F)F)c1 | 35.6 µM |
| Cc1cc(OCC(=O)O/N=C(\N)Cc2ccc(Cl)cc2)ccc1Br | 2.1 µM |
| O=C(CSCc1ccccc1)Nc1cc(S(=O)(=O)N2CCOCC2)ccc1Oc1ccccc1 | > 99 µM (inactive) |
| CC(C)Cn1cnc2c(c(-c3ccccc3)c(-c3ccccc3)n2Cc2ccco2)c1=N | 34.3 µM |
| Cc1nc2scc(C)n2c(=O)c1S(=O)(=O)Nc1ccc(F)cc1Cl | 68.1 µM |
| N/C(=N\OC(=O)c1ccc(F)cc1)c1ccc(Br)cc1 | 39.8 µM |
| CCCN(C(=O)c1ccc([N+](=O)[O-])c(C)c1)c1c(N)n(Cc2ccccc2)c(=O)[nH]c1=O | > 99 µM (inactive) |
| Cc1noc(C)c1S(=O)(=O)Nc1ccc(-c2cn3c(n2)SCC3)cc1 | 79.2 µM |
| CCN(C(=O)c1cccc2ncccc12)c1c(N)n(Cc2ccccc2)c(=O)[nH]c1=O | > 99 µM (inactive) |
| N#Cc1ccc(C2N=C(c3ccccc3)NO2)cc1 (centres undefined) | > 99 µM (inactive) |
| CCn1c(N2CCN(S(=O)(=O)c3ccc(OC)cc3)CC2)nc2ccccc21 | 15.8 µM |
| CCOc1cc2ccccc2cc1C(=O)O/N=C(\N)c1ccc(Cl)cc1 | 2.42 µM |
| Cc1nc2scc(C)n2c(=O)c1S(=O)(=O)Nc1ccc2c(c1)OCCO2 | 80.5 µM |

| SMILES | IC50 |
| --- | --- |
| Cc1nc2sc(C)c(C)n2c(=O)c1S(=O)(=O)Nc1ccc(Br)cc1 | > 99 µM (inactive) |
| N/C(=N\OC(=O)c1ccc2ncsc2c1)c1ccc(Cl)cc1Cl | 2.57 µM |
| Cc1ccc2nc(N3CCN(S(=O)(=O)C4CC4)CC3)[nH]c2c1 | 49.4 µM |
| COc1ccc(/C=C/C(=O)Nc2ccc3c(c2)CCC3)cc1OC | 11.2 µM |
| N=c1c2c(-c3ccccc3)c(-c3ccccc3)n(Cc3ccco3)c2ncn1CCCN1CCOCC1 | > 99 µM (inactive) |
| Cc1c2c(n(Cc3ccco3)c1C)N=CN1CCS(=O)(=O)N=C21 | 48.5 µM |
| N/C(=N\OC(=O)c1ccc(Cl)cc1)c1ccc(-c2csnn2)cc1 | > 99 µM (inactive) |
| CN(C(=O)c1cccc(S(C)(=O)=O)c1)c1c(N)n(Cc2ccccc2)c(=O)[nH]c1=O | > 99 µM (inactive) |
| COc1ccc([N+](=O)[O-])cc1NS(=O)(=O)c1c(C)nc2scc(C)n2c1=O | > 99 µM (inactive) |
| CCCCOc1ccc(C(=O)O/N=C(\N)c2cccc(Br)c2)cc1 | 20.8 µM |
| N/C(=N\OC(=O)c1ccc(Cl)cc1)c1ccc(S(=O)(=O)N2CCOCC2)cc1 | 4.81 µM |
| N#Cc1c(-c2ccc([N+](=O)[O-])cc2)cc(-c2ccccc2)nc1N | > 99 µM (inactive) |
| O=c1cc(C(F)F)oc2c1ccc1ccccc12 | > 99 µM (inactive) |
| O=C(CSc1cccc[n+]1[O-])Nc1ccccc1Oc1ccccc1 | 0.806 µM |
| Cc1ccc(-c2cc(NC(=O)c3c(C)noc3C)nc(-c3ccccc3)c2)cc1 | > 99 µM (inactive) |
| CCN1CCc2nc3sc(C(=O)Nc4cc(Cl)ccc4OC)c(N)c3cc2C1 | > 99 µM (inactive) |
| CS(=O)(=O)Nc1ccc(/C(N)=N/OC(=O)c2ccccc2Cl)cc1 | 66.4 µM |
| N/C(=N\OC(=O)c1ccc(Cl)cc1)c1cccc(CS(=O)(=O)c2ccccn2)c1 | 19.2 µM |
| Cc1ccc(S(=O)(=O)Cc2cc(=O)n3ccccc3n2)nc1 | > 99 µM (inactive) |
| N/C(=N\OC(=O)c1cccc2ccccc12)c1ccc(Cl)cc1 | 0.781 µM |
| Cc1nc2scc(C)n2c(=O)c1S(=O)(=O)Nc1ccc(CN2CCCCC2)cc1 | > 99 µM (inactive) |
| Cc1nc2scc(C)n2c(=O)c1S(=O)(=O)Nc1ccc(N2CCOCC2)c(Cl)c1 | > 99 µM (inactive) |
| Cc1ccc(OCC(=O)O/N=C(\N)Cc2ccc(Cl)cc2)cc1 | 20.4 µM |
| N#C/C(=C\c1ccc(Cl)cc1)C(=O)Nc1cccnc1 | 14.2 µM |
| N/C(=N\OC(=O)c1ccc2ncsc2c1)c1ccccc1 | 9.17 µM |

From PubChem BioAssay AID602380 (Sanford-Burnham Center for Chemical Genomics, 2012)
